Measurements reported in PMC7285485, “Antifungal and Antibiofilm Activities and the Mechanism of Action of Repeating Lysine-Tryptophan Peptides against Candida albicans” (Microorganisms, 2020).
Converted amounts (≈) assume the structure as drawn. Like-named read-outs stand apart in the source and are kept apart here. Ends that are not written are not given here. Peptide text beside a SMILES is read from it.

Columns and labels:
C. rugosa = test: microbe, parasite or virus in culture; assay type: cell-based, Candida rugosa; details: read-out: Minimum inhibitory concentration
Experimental: (§1) The fungal strains C. albicans (KCTC 7270), C. catenulate (7642), C. intermidia (7234), C. rugosa (7324), C. glabrata (7219) and C. melibiosica (KCTC 7631) were cultured at 28 °C in appropriate media. Fungal cells (final concentration 2 × 10^4 cells/ mL) in 50 μL of YPD media (dextrose 2%, peptone 1% and yeast extract 0.5%) were seeded in each well of a microtiter plate containing 50 μL of two-fold serially diluted peptides in phosphate buffered saline. After incubation for 24 to 30 h at 28 °C, the lowest concentration of the peptides inhibiting the growth of the fungi was microscopically determined to be the minimum inhibitory concentrations (MICs). The effect of salt concentration on the antifungal activity of the peptides was tested by determining the MICs in the presence of NaCl and MgCl2. Fixed concentrations of NaCl (50, 100 and 150 mM) or MgCl2 (1, 2 and 5 mM) were added to the sodium phosphate buffer (pH 7.2). The effect of pH on the antifungal activity of the peptides was tested by determining peptide MICs in the presence of sodium phosphate buffer at a variety of pH values.

red blood cells = details: ref [35], cited from earlier work; for Hemolysis: red blood cells, 200 µM peptide
Description: Furthermore, it maintained its antifungal activity in physiological salt concentrations and at low pH values.

[1] = system: C. albicans (CCARM 14007); test: microbe, parasite or virus in culture; assay type: cell-based, Candida albicans; details: read-out: Minimum Inhibitory Concentrations
[2] = system: C. albicans (CCARM 14001); test: microbe, parasite or virus in culture; assay type: cell-based, Candida albicans; details: fluconazole-resistant strain CCARM 14001, 24 to 30 h, 28 °C, read-out: Minimum Inhibitory Concentrations
C. catenulate = test: microbe, parasite or virus in culture; assay type: cell-based, Candida catenulate; details: read-out: Minimum inhibitory concentration
Experimental: as §1

[3] = system: C. albicans (CCARM 140020); test: microbe, parasite or virus in culture; assay type: cell-based, Candida albicans; details: read-out: Minimum Inhibitory Concentrations
C. glabrata = test: microbe, parasite or virus in culture; assay type: cell-based, Candida glabrata; details: read-out: Minimum inhibitory concentration
Experimental: as §1

C. intermedia = test: microbe, parasite or virus in culture; assay type: cell-based, Candida intermedia; details: read-out: Minimum inhibitory concentration
Experimental: as §1

C. melibiosica = test: microbe, parasite or virus in culture; assay type: cell-based, Candida melibiosica; details: read-out: Minimum inhibitory concentration
Experimental: as §1

[4] = Calcein leakage from fungal membrane mimetic liposomes; details: 2.5 μM lipid, peptide 0.0–0.25 μΜ, 25 min, 25 °C; 100% = 0.1% Triton X-100; highest P/L ratio tested
Experimental: (§2) Calcein-entrapped LUVs composed of PE–PC–PI–ergosterol (5:4:1:2, w/w/w/w) or PC–CH–SM (1:1:1, w/w/w) were prepared by mixing the dried lipid in buffer solution (containing 70 mM calcein, PBS, pH 7.4). The suspension was freeze-thawed in liquid nitrogen for nine cycles and then extruded through two stacked […] pore-size polycarbonate filters for 16 times using an Avanti Mini-Extruder (Avanti Polar Lipids Inc., Alabaster, AL, USA). Vesicles containing entrapped calcein were separated from free calcein by gel filtration chromatography on a Sephadex G-50 column. Entrapped LUVs in a suspension containing 2.5 μM lipids were then incubated with various concentrations of the peptide (0.0–0.25 μΜ) for 25 min. The release of calcein fluorescence was followed using a spectrofluorometer (Perkin-Elmer LS55, Mid Glamorgan, UK) with appropriate wavelengths (excitation, 480 nm; and emission, 520 nm). […] Spontaneous leakage was determined to be negligible on this timescale. […] The percentage of calcein release was calculated according to the following equation [41]:Release (%) = 100 × (F − Fo)/(Ft − Fo) (Ex. 480 nm and Em. 520 nm)(1) where F represent the fluorescence intensity before the addition of the detergent, Ft represents the fluorescence intensity after the addition of the detergent and Fo represents the fluorescence of the intact vesicles.

C. albicans [5] = test: Fluorescence microscopy of PI cell permeabilization; assay type: cell-based, Candida albicans; details: 8 μM KW4 or 4 μM melittin, 10, 20 and 30 min, 28 °C
Experimental: The cell permeability was monitored using the DNA-staining fluorescent probe PI as previously described. For this experiment, C. albicans cells were grown in YPD broth with shaking at 200 rpm overnight at 28 °C. Cells were harvested by centrifugation (4000 rpm for 10 min), washed and suspended in PBS to yield 2 × 10^6 cells/mL; 100 μL of C. albicans suspensions (2 × 10^6 cells/mL) were incubated with 5 μL from respective peptide aqueous stock solutions to yield a final peptide concentration of 8 μM KW4 peptide or 4 μM melittin (as a control peptide) for 10, 20 and 30 min at 28 °C. Next, PI was added to each sample at a final concentration of 1 μg/mL and the plate was incubated at 28 °C for 5 min. The effects of the peptides on C. albicans were visualized by the EVOS FL Auto 2 imaging system (Invitrogen, Waltham, MA, USA). Cells without added peptide served as a control.

[6] = Calcein leakage from eukaryotic membrane mimetic liposomes; details: 2.5 μM lipid, peptide 0.0–0.25 μΜ, 25 min, 25 °C; 100% = 0.1% Triton X-100
Experimental: as §2

C. albicans (KCTC 7270) = test: microbe, parasite or virus in culture; assay type: cell-based, Candida albicans; details: YPD/PBS, 24 to 30 h, 28 °C, read-out: Minimum Inhibitory Concentrations
Experimental: as §1

[7] = system: HaCaT (human keratinocyte) cells; test: Cytotoxicity, MTT assay; assay type: cell-based; details: 24 h
Experimental: We examined the cytotoxic effects of the peptides using HaCaT (human keratinocyte) cells, which were cultured in Dulbecco’s modified Eagle medium (DMEM) supplemented with antibiotics (100 U/mL penicillin, 100 µg/mL streptomycin) and 10% fetal calf serum at 37 °C in a humidified chamber with atmosphere containing 5% CO2. To measure viable cells and growth inhibition, an MTT colorimetric assay was used. A total of 4 × 10^3 cells was seeded per well into a 96-well plate incubated at 37 °C for 24 h. The next day, cells from plates were treated with various concentrations of the tested peptides. After 24 h incubation at 37 °C, MTT (10 μL) was added at a concentration of 5 mg/mL to each well. The culture supernatants were discarded after a further 4 h, and the remaining precipitate was dissolved by the addition of 100 μL of DMSO into the wells. Absorbance was then measured at a wavelength of 570 nm using an EL800 reader (Bio-Tek instruments, Inc., Winooski, VT, USA).

C. albicans [8] = test: SYTOX Green membrane permeabilization; assay type: cell-based, Candida albicans; details: 2 × 10^7 cells/mL, 1 µM SYTOX Green, followed for 120 min
Experimental: Membrane permeabilization of C. albicans was studied using the fluorescent dye SYTOX Green (Molecular Probes, Eugene, OR, USA). Fungal cells were grown to mid-logarithmic growth phase then centrifuged, washed and resuspended in PBS. Cells were suspended in PBS (2 × 10^7 cells/mL) and incubated with 1 µM SYTOX Green for 15 min in the dark prior to the influx assay. At 2–3 min after initiating data collection, 1/2× or 1× MIC peptides were added to the cell suspensions. Due to the binding of the dye to intracellular DNA, the increases in SYTOX Green fluorescence was measured for 120 min (excitation and emission wavelengths were 485 nm and 520 nm, respectively). Lysis of the cells in Triton X-100 (0.1%) or melittin gave maximum fluorescence.

[9] = system: RNA obtained from C. albicans; test: RNA gel retardation assay; assay type: binding, Candida albicans; details: Supplementary Figure S2
Experimental: Briefly, RNA was extracted from C. albicans using the TRI reagent (Molecular Research Center, Cincinnati, OH, USA) according to the manufacturer’s instructions. Purified RNA was collected and resuspended in RNAse-free water. Then, the yeast RNA (10 µg) was mixed with peptide at different concentrations, 2.5–30 µg in 15 µL of 10 mM Tris, 1 mM EDTA buffer (pH 8.0). After 10 min incubation at room temperature, the solution was subjected to electrophoresis on a 1% agarose gel in Tris Borate EDTA (TBE) buffer. Gel retardation was visualized under UV illumination using a Bio-Rad Gel Documentation system.

## KWKWKWKWKW-NH2 [KW5]
C. rugosa
  MIC: 8 µM
Red blood cells
  Hemolysis: 71%
[1]; CCARM 14007
  MIC: 16 µM
[2]
  MIC: 8 µM
C. catenulate
  MIC: 8 µM
[3]; CCARM 140020
  MIC: 8 µM
C. glabrata
  MIC: 4 µM
C. intermedia
  MIC: 8 µM
C. melibiosica
  MIC: 8 µM

## CC[C@H](C)[C@H](NC(=O)CN)C(=O)NCC(=O)N[C@@H](C)C(=O)N[C@H](C(=O)N[C@@H](CC(C)C)C(=O)N[C@@H](CCCCN)C(=O)N[C@H](C(=O)N[C@@H](CC(C)C)C(=O)N[C@H](C(=O)N[C@H](C(=O)NCC(=O)N[C@@H](CC(C)C)C(=O)N1CCC[C@H]1C(=O)N[C@@H](C)C(=O)N[C@@H](CC(C)C)C(=O)N[C@H](C(=O)N[C@@H](CO)C(=O)N[C@@H](Cc1c[nH]c2ccccc12)C(=O)N[C@H](C(=O)N[C@@H](CCCCN)C(=O)N[C@@H](CCCNC(=N)N)C(=O)N[C@@H](CCCCN)C(=O)N[C@@H](CCCNC(=N)N)C(=O)N[C@@H](CCC(N)=O)C(=O)N[C@@H](CCC(N)=O)C(N)=O)[C@@H](C)CC)[C@@H](C)CC)[C@@H](C)O)[C@@H](C)O)C(C)C)C(C)C [Melittin, melittin, reference compound]
[4]
  Calcein leakage from PE–PC–PI–ergosterol liposomes: 80%
C. rugosa; C. rugosa
  MIC: 8 µM
C. albicans [5]
  PI uptake seen by fluorescence microscopy: allowed the uptake of PI
[6]
  Calcein leakage from PC–CH–SM liposomes: 90%
[1]; fluconazole-resistant strain CCARM 14007, 24 to 30 h, 28 °C
  MIC: 8 µM (≈ 22.8 µg/mL)
[2]
  MIC: 16 µM (≈ 45.5 µg/mL)
C. catenulate; C. catenulate
  MIC: 8 µM
[3]; fluconazole-resistant strain CCARM 140020, 24 to 30 h, 28 °C
  MIC: 8 µM (≈ 22.8 µg/mL)
C. glabrata; C. glabrata
  MIC: 4 µM
C. albicans (KCTC 7270); 2 × 10^4 cells/mL
  MIC: 4 µM
C. intermedia; C. intermedia
  MIC: 8 µM
C. melibiosica; C. melibiosica
  MIC: 8 µM
[7]; 12.5 μM
  Cytotoxicity against HaCaT cells: 100%
[7]; HaCaT cells, 200 µM peptide
  Cell survival: 0%
C. albicans [8]
  Time to complete membrane permeabilization (SYTOX green): ≤ 35 min

## indolicidin (ILPWKWPWWPWRR; ends and bridges not checked; UniProt P33046 131-143, looked up) [AMP which can act intracellularly]
[9]
  RNA band shift in gel retardation: did cause a similar band shift

## KWKWKWKW-NH2 [KW4]
C. rugosa
  MIC: 8 µM
Red blood cells
  Hemolysis: 8%
  Hemolytic activity: no hemolytic activity
[1]; CCARM 14007
  MIC: 32 µM
[2]
  MIC: 32 µM
C. catenulate
  MIC: 8 µM
[3]; CCARM 140020
  MIC: 32 µM
C. glabrata
  MIC: 8 µM
C. intermedia
  MIC: 8 µM
C. melibiosica
  MIC: 8 µM

## OC(Cn1cncn1)(Cn1cncn1)c1ccc(F)cc1F [Fluconazole, fluconazole, reference compound]
C. rugosa; Diutina rugosa, C. rugosa
  MIC: 16 µM
[1]; Candida albicans, CCARM14007, fluconazole-resistant strain CCARM 14007, 24 to 30 h, 28 °C
  MIC: > 128 µM
[2]; Candida albicans, CCARM14001
  MIC: > 128 µM
C. catenulate; Candida, C. catenulate
  MIC: 16 µM
[3]; Candida albicans, CCARM140020, fluconazole-resistant strain CCARM 140020, 24 to 30 h, 28 °C
  MIC: > 128 µM
C. glabrata; Nakaseomyces glabratus, C. glabrata
  MIC: 8 µM
C. albicans (KCTC 7270); Candida albicans, KCTC7270, 2 × 10^4 cells/mL
  MIC: 16 µM
C. intermedia; Sungouiella intermedia, C. intermedia
  MIC: 16 µM
C. melibiosica; Helenozyma melibiosica, C. melibiosica
  MIC: 16 µM

## KWKWKW-NH2 [KW3, KWKWKW-NH2]
C. rugosa
  MIC: 32 µM
Red blood cells
  Hemolysis: 0%
[2]
  MIC: >128 µM
C. catenulate
  MIC: 16 µM
C. glabrata
  MIC: 32 µM
C. intermedia
  MIC: 32 µM
C. melibiosica
  MIC: 32 µM

## NCCCC[C@H](NC(=O)[C@H](Cc1c[nH]c2ccccc12)NC(=O)[C@@H](N)CCCCN)C(=O)N[C@@H](Cc1c[nH]c2ccccc12)C(N)=O [KW2, KWKW-NH2] (H-KWKW-NH2)
C. rugosa
  MIC: > 128 µM
Red blood cells
  Hemolysis: 0%
[2]
  MIC: >128 µM
C. catenulate
  MIC: > 128 µM
C. glabrata
  MIC: > 128 µM
C. intermedia
  MIC: > 128 µM
C. melibiosica
  MIC: > 128 µM

## magainin II
[9]
  RNA band shift in gel retardation: did not cause a band shift
